Legend:
[1] = biological target: GID4 and ALK (Homo sapiens, UniProt Q8IVV7+Q9UM73); experiment: NanoBRET cellular ternary complex formation assay, HEK293T cells; type: cell-based; conditions: 6 h, increasing concentrations
[2] = system: BaF3-EML4-ALK cells; experiment: CCK8 cell viability time course, BaF3-EML4-ALK cells; type: cell-based; conditions: 1 μM
[3] = biological target: T1, EML4-ALK (Homo sapiens, UniProt Q9HC35+Q9UM73); experiment: EML4-ALK degradation in BaF3-EML4-ALK cells by immunoblotting; type: cell-based; conditions: 1 μM, same time points
[4] = biological target: T1, EML4-ALK; experiment: EML4-ALK protein levels in H3122 xenograft tumors, I.P. dosing, immunoblotting; type: in vivo, nude mice; conditions: 10 mg/kg I.P. every other day, 8 doses

Chain of GID4 and ALK (Q9UM73 1094-1400 limits assumed): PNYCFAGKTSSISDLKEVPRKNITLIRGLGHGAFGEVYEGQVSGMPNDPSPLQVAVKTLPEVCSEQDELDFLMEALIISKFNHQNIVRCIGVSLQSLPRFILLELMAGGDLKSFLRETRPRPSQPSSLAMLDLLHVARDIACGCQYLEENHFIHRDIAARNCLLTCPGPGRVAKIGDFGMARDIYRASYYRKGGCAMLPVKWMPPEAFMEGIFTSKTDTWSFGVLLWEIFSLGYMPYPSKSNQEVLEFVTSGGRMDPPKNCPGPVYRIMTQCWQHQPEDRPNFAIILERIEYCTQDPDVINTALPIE
Chain of GID4 and ALK (Q8IVV7 whole entry): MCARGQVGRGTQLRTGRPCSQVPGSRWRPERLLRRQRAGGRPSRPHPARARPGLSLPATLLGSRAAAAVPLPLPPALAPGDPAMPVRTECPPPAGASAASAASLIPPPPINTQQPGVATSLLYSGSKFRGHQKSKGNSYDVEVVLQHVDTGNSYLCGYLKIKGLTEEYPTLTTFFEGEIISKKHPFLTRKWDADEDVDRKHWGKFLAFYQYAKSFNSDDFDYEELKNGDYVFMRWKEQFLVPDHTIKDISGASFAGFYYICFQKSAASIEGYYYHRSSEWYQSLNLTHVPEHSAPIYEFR

- BRET signal between GID4 and ALK [1]: did not induce any BRET signal
- effect on levels of EML4-ALK [3]: had no effect
- effect on EML4-ALK protein levels in tumors [4]: failed to reduce
SMILES: COc1cc(N2CCC(N3CCN(C)CC3)CC2)ccc1Nc1ncc(Cl)c(Nc2ccccc2P(C)(C)=O)n1 [Brigatinib]
- time post-treatment at which cell proliferation is inhibited [2]: 0.5 h

Source: paper PMC12102262 (Nature Communications, 2025)
